Data taken from a melting point compilation (Tetko et al.).

| melting point [°C] | SMILES |
| --- | --- |
| 103 to 105 | O=C1CCCOc2c1ccc(Cl)c2Cl |
| 133 to 135 | O=Cc1c(Cl)nc(Cl)n1-c1ccccc1 |
| 154 to 156 | COc1ccc(NC(=O)c2ccccc2N)c(OC)c1 |
| 151 to 153 | O=C(O)CCCc1ccc2c(c1)-c1ccccc1C2 |
| 102 to 104 | O=C(O)CCCN1C(=O)CCC1=O |
| 72 to 74 | CCOc1cccc2cc(C(C)=O)oc12 |
| 135 to 137 | C=CC(=O)Nc1cc(N)ccc1F |
| 107 to 109 | C1CCC(c2nnc3n2CCCC3)NC1 (configuration not stated) |
| 80 to 82 | NNC(=O)CNc1cccc(C(F)(F)F)c1 |
| 150 to 152 | COC(=O)c1ccc(S(N)(=O)=O)s1 |
| 171 to 173 | NNC(=O)c1cc2ccccc2o1 |
| 91 to 93 | Cc1nn(C)c(Oc2cccnc2)c1C=O |
| 169 to 171 | O=C(O)c1cncs1 |
| 278 to 280 | COc1ccc(-c2cncc(C(=O)O)c2)cc1 |
| 185 to 187 | Cc1oc(-c2cccs2)nc1CC(=O)O |
| 210 to 212 | NC(=O)CSc1ccccc1C(=O)O |
| 104 to 106 | CCc1nc2ccccc2n1CC#N |
| 86 to 90 | O=C(O)CCCCCNS(=O)(=O)c1ccc2c(c1)OCCO2 |
| 109 to 111 | COC(=O)c1cc([N+](=O)[O-])ccc1S(=O)(=O)Cl |
| 124 to 126 | CC(C)(C)NS(=O)(=O)c1ccc(NN)nc1 |
| 115 to 117 | N#Cc1cccc(I)c1N |
| 122 to 124 | NS(=O)(=O)Cc1ccc(F)cc1 |
| 239 to 241 | Cc1nc(-c2c(C)c(C)nn(C)c2=O)sc1C(=O)O |
| 205 to 207 | COC(=O)c1c(CC(=O)O)[nH]c(C(C)=O)c1C |
| 110 to 112 | Cn1c(C(N)c2ccccc2)nc2ccccc21 (configuration not stated) |
| 129 to 131 | O=S(=O)(Cc1ccccc1)N1CCNCC1 |
| 213 to 215 | Cc1cc(C(=O)O)c(C)n1-c1ccccc1 |
| 91 to 93 | CCOC(=O)C(=O)CC(=O)c1ccccc1OCC |

| melting point [°C] | SMILES |
| --- | --- |
| 71 to 73 | Cc1ccccc1CNc1ccccc1N |
| 157 to 159 | CC1CC(C)CN(S(=O)(=O)c2ccc(N)cc2)C1 (configuration not stated) |
| < 17 | Cc1ccc(-c2nnc(C(C)Cl)o2)cc1 (configuration not stated) |
| 111 to 113 | O=Cc1cnn(C2CCS(=O)(=O)C2)c1 (configuration not stated) |
| 201 to 203 | NC(=O)CNS(=O)(=O)c1ccc(F)c(C(=O)O)c1 |
| 139 to 141 | COC(=O)c1cc(CBr)cc(C(=O)OC)c1 |
| 202 to 204 | O=C(O)C1CSC2(c3ccc(F)cc3)CCC(=O)N12 (configuration not stated) |
| 69 to 71 | CN(C)c1cc(C#N)ccn1 |
| 164 to 166 | O=C(O)c1cc(OCC2CC2)c2ccccc2n1 |
| 222 to 224 | O=C(O)c1cccc(CSc2c(Cl)cccc2Cl)c1 |
| 38 to 40 | COc1ccc(Cl)c(N=C=O)c1 |
| 59 to 61 | CCCOc1ccc(Cl)cc1C(=O)O |
| 134 to 136 | COc1cc(C(C)=O)ccc1S(=O)(=O)C(F)F |
| 172 to 174 | O=C(O)CCC(=O)c1ccc2ccccc2c1 |
| 213 to 215 | Cc1nc(=O)cc[nH]1 |
| 131 to 133 | O=C(O)C1CCN(S(=O)(=O)N2CCCCC2)CC1 |
| 97 to 99 | CCOC(=O)c1ccn(-c2cccc(N)c2)n1 |
| 148 to 150 | O=C(O)c1cccc(F)c1I |
| 42 to 44 | CC(C)C(N)=S |
| 144 to 146 | Cc1ccc(Br)cc1N1CCCS1(=O)=O |
| 123 to 125 | O=C(O)CCC(=O)c1ccc2c(c1)CCC2 |
| 163 to 167 | Nn1c(S)nnc1COc1ccccc1 |
| 129 to 131 | COc1ccc(S(=O)(=O)Cl)c(OC)c1C(=O)O |
| 121 to 123 | O=C(O)CCCn1ccccc1=O |
| 136 to 138 | Cc1ccc(-c2nnco2)cc1N |
| 160 to 162 | COC(=O)c1cc(S(=O)(=O)N2CCCC2)ccc1O |
| 204 to 206 | Cc1ccc(C(=O)O)c(O)c1O |

| SMILES | melting point [°C] |
| --- | --- |
| Cc1ccc(Cn2nc(C)c(C(=O)O)c2C)cc1 | 134 to 136 |
| O=C(CCl)N1CCCC1=O | 33 to 35 |
